Experimental data from US20100028457A1, “AGENT FOR PREVENTION OR TREATMENT OF BLOOD GLUCOSE LEVEL ELEVATION” (UNIVERSITY OF THE RYUKYUS, priority 2006, published 2010).

Columns and labels:
[1] = test system: spontaneously obese insulin-resistant diabetic mice (KKAy); experiment: Blood glucose level in KKAy mice fed test feeds; assay type: in vivo; conditions: for blood glucose level upon finishing the feeding, % of control group: 56th day, control group 306 mg/dl (100%), normal mice 34%; for blood glucose level, mean value: tail vein blood
Method: (§1) Firstly, four kinds of feeds were prepared for animal tests.
(§2) Feeding of the mice of those four groups was conducted in a single feeding manner and water was freely taken by each mouse.
(§3) Blood glucose level during the feeding period (until the 51st day) and blood glucose level, blood insulin concentration, blood leptin concentration and adiponectin concentration were measured when the feeding finished (on the 56th day) whereby the action of each ingredient on the mice was checked. Further, in order to compare with the diabetic model mice, normal mice (eight males) of the same 13 weeks age were used as a normal group and their blood was collected upon finishing the feeding followed by measuring each of the above concentrations.
During the feeding period for the two months, blood was collected from tail vein of the mice upon the initiation of the feeding (on the 0th day) and on the 15th, 37th and 51st days from the initiation of the feeding and the blood glucose level therein was measured.

plasma insulin = experiment: Plasma insulin concentration in KKAy mice at end of feeding; assay type: in vivo; conditions: 56th day, control group 7.0 ng/ml (100%), normal mice 16%
Method: as §1, §2, §3
Concentration of insulin in plasma was measured upon finishing the feeding (on the 56th day).

plasma leptin = experiment: Plasma leptin concentration in KKAy mice at end of feeding; assay type: in vivo; conditions: 56th day, control group 7.3 ng/ml (100%), normal mice 15%
Method: as §1, §2, §3
Concentration of leptin was also measured upon finishing the feeding (on the 56th day).

plasma adiponectin = experiment: Plasma adiponectin concentration in KKAy mice at end of feeding; assay type: in vivo; conditions: 56th day, control group 1.1 μg/ml (100%), normal mice 46%
Method: as §1, §2, §3
It has been said that a plasma adiponectin which is an anti-antidiabetic and anti-arteriosclerotic factor derived from fat tissues enhances insulin sensitivity and improves insulin resistant diabetes due to its action of activating the fatty acid oxidation in systemic muscles and reducing the neutral fat amount (Iichiro Shimomura, Toru Funahashi and Yuji Matsuzawa: Adiponectin—Anti-antidiabetic and anti-arteriosclerotic factor derived from fat tissues, Molecular Medicine, Vol. 39, No. 4, 416-423, 2002). […] The concentration of adiponectin was also measured upon finishing the feeding (on the 56th day).

PPAR-γ mRNA in pancreas = experiment: Quantification of expression of PPAR-γ mRNA in pancreas (real-time quantitative PCR); assay type: in vivo; conditions: KKAy mice after feeding; ratio to GAPDH mRNA; control group 0.28 (100%), normal mice 161%
Method: (§4) According to the conventional method, RNA was extracted from the cells of pancreas and kidney. cDNA was prepared by a reverse transcription reaction from the RNA and quantitative determination of expression amount of mRNA related to diabetes was carried out by means of a real-time quantitative PCR. In the following experiments, quantitative determination of the expression amount of mRNA was analyzed using Mx 3000P (manufactured by Stratagene). In all cases, condition for the PCR was that a hot start was conduced at 95° C. for 10 minutes and then a cycle comprising 95° C. for 30 seconds, 60° C. for 1 minute and 72° C. for 30 seconds was repeated for 45 times. At the same time, dilution rows of five stages were prepared using a control RNA of 5 ng/μl concentration and expression amount of RNA was determined from the resulting standard curve. As to a reagent for the PCR, Brilliant SYBR Green QPCR Master Mix (manufactured by Stratagene) was used in accordance with a protocol for its manual for use. […] Incidentally, expression amount of mRNA of a test substance in each test was indicated in terms of a ng ratio of the commonly expressed GAPDH enzyme to the amount of mRNA (internal standard).
The expression amount of PPAR-γ mRNA was measured by the PCR using the following primer.

[2] = test system: adiponectin mRNA in pancreas; experiment: Quantification of expression of adiponectin mRNA in pancreas (real-time quantitative PCR); assay type: in vivo; conditions: KKAy mice after feeding; ratio to GAPDH mRNA; control group 1.07 (100%), normal mice 145%
Method: as §4
Expression amount of adiponectin mRNA was measured by the PCR using the following primers.

PPAR-α mRNA in pancreas = experiment: Quantification of expression of PPAR-α mRNA in pancreas (real-time quantitative PCR); assay type: in vivo; conditions: KKAy mice after feeding; ratio to GAPDH mRNA; control group 0.61 (100%), normal mice 123%
Method: as §4
The expression amount of the PPAR-α mRNA was measured by the PCR using the following primers.

insulin mRNA in pancreas = experiment: Quantification of expression of insulin mRNA in pancreas (real-time quantitative PCR); assay type: in vivo; conditions: KKAy mice after feeding; ratio to GAPDH mRNA; control group 5.12×10^4 (100%), normal mice 11%
Method: as §4
Expression amount of insulin mRNA in the pancreas was measured by the PCR using the following primers.

PPAR-γ mRNA in kidney = experiment: Quantification of expression of PPAR-γ mRNA in kidney (real-time quantitative PCR); assay type: in vivo; conditions: KKAy mice after feeding; ratio to GAPDH mRNA; control group 0.56 (100%)
Method: as §4
Expression amount of PPAR-γ mRNA in kidney which adjusts adiponectin and its expression promoting the fatty acid combustion in tissues thereof was measured by the PCR using the following primers.

[3] = test system: adiponectin mRNA in kidney; experiment: Quantification of expression of adiponectin mRNA in kidney (real-time quantitative PCR); assay type: in vivo; conditions: KKAy mice after feeding; ratio to GAPDH mRNA; control group 2.53×10^−3 (100%)
Method: as §4
Expression amount of adiponectin mRNA in kidney was measured by the PCR using the following primers.

PPAR-α mRNA in kidney = experiment: Quantification of expression of PPAR-α mRNA in kidney (real-time quantitative PCR); assay type: in vivo; conditions: KKAy mice after feeding; ratio to GAPDH mRNA; control group 0.532 (100%)
Method: as §4
Expression amount of PPAR-α mRNA in kidney was measured by the PCR using the following primers.

[4] = test system: PPARγ in bone marrow cells of femur; experiment: Expression of PPARγ mRNA in bone marrow cells of femur (real-time quantitative PCR); assay type: in vivo; conditions: KKAy mice after feeding; control group 5.05×10^−2 (100%)
[5] = test system: patients suffering from osteoporosis; conditions: 32 osteoporosis patients, daily dose 6.4 g (1.7 g as Sr), three months to three years; cited from earlier work
[6] = 15th day of feeding, control group 214
[7] = 37th day of feeding, control group 386
[8] = 51st day of feeding, control group 339
[9] = initiation of feeding (0th day), control group 167

[Cl-].[Cl-].[Sr+2] [Sr group, strontium chloride]
blood glucose level upon finishing the feeding, % of control group [1]: 55% | blood glucose level, mean value [1, 6]: 200 mg/dL | blood glucose level, mean value [1, 7]: 288 mg/dL | blood glucose level, mean value [1, 8]: 247 mg/dL | blood glucose level, mean value [1, 9]: 150 mg/dL | plasma insulin concentration, % of control group (plasma insulin): 70% | plasma leptin concentration, % of control group (plasma leptin): 71% | plasma adiponectin concentration, % of control group (plasma adiponectin): 42% | expression amount of PPAR-γ mRNA in pancreas, % of control group (PPAR-γ mRNA in pancreas): 181% | expression amount of adiponectin mRNA in pancreas, % of control group [2]: 117% | expression amount of PPAR-α mRNA in pancreas, % of control group (PPAR-α mRNA in pancreas): 104% | expression amount of insulin mRNA in pancreas, % of control group (insulin mRNA in pancreas): 64% | expression amount of PPAR-γ mRNA in kidney, % of control group (PPAR-γ mRNA in kidney): 136% | expression amount of adiponectin mRNA in kidney, % of control group [3]: 123% | expression amount of PPAR-α mRNA in kidney, % of control group (PPAR-α mRNA in kidney): 169% | expression amount of PPARγ in bone marrow cells of femur, % of control group [4]: 65%

CC(O)C(=O)[O-].CC(O)C(=O)[O-].[Sr+2] (stereo not drawn) [strontium lactate]
patients in whom improvement was achieved [5]: 84%

O=[Si]([O-])[O-].[Na+].[Na+] [Si group, sodium metasilicate]
blood glucose level upon finishing the feeding, % of control group [1]: 86% | blood glucose level, mean value [1, 6]: 231 mg/dL | blood glucose level, mean value [1, 7]: 268 mg/dL | blood glucose level, mean value [1, 8]: 235 mg/dL | blood glucose level, mean value [1, 9]: 156 mg/dL | plasma insulin concentration, % of control group (plasma insulin): 68% | plasma leptin concentration, % of control group (plasma leptin): 76% | plasma adiponectin concentration, % of control group (plasma adiponectin): 70% | expression amount of PPAR-γ mRNA in pancreas, % of control group (PPAR-γ mRNA in pancreas): 125% | expression amount of adiponectin mRNA in pancreas, % of control group [2]: 128% | expression amount of PPAR-α mRNA in pancreas, % of control group (PPAR-α mRNA in pancreas): 116% | expression amount of insulin mRNA in pancreas, % of control group (insulin mRNA in pancreas): 9% | expression amount of PPAR-γ mRNA in kidney, % of control group (PPAR-γ mRNA in kidney): 141% | expression amount of adiponectin mRNA in kidney, % of control group [3]: 135% | expression amount of PPAR-α mRNA in kidney, % of control group (PPAR-α mRNA in kidney): 171% | expression amount of PPARγ in bone marrow cells of femur, % of control group [4]: 50%
